Literature values, collected in patent publication US11759504B2, “PTH compounds with low peak-to-trough ratios” (Ascendis Pharma Bone Diseases A/S, priority 2016, dated 2023).
Read-outs that look alike come from different tables or passages of the source.

Columns and labels:
[1] = not given; remark: listed apart in the source

Row | Compound | osteosarcoma rate (rats, daily injections) | osteosarcoma rate (rat, in vivo) | patients who developed hypercalcemia at one or more measurements during a 24-hour period ([1]; human, in vivo) | urinary calcium excretion ([1]; over the 24-hour period after injection) | treated participants who achieved normal blood calcium levels on reduced doses of calcium supplements and active forms of vitamin D ([1]; pivotal trial, once-daily sc)
1 | CC[C@H](C)[C@H](NC(=O)[C@H](CCC(=O)O)NC(=O)[C@H](CO)NC(=O)[C@@H](NC(=O)[C@@H](N)CO)C(C)C)C(=O)N[C@@H](CCC(N)=O)C(=O)N[C@@H](CC(C)C)C(=O)N[C@@H](CCSC)C(=O)N[C@@H](Cc1cnc[nH]1)C(=O)N[C@@H](CC(N)=O)C(=O)N[C@@H](CC(C)C)C(=O)NCC(=O)N[C@@H](CCCCN)C(=O)N[C@@H](Cc1cnc[nH]1)C(=O)N[C@@H](CC(C)C)C(=O)N[C@@H](CC(N)=O)C(=O)N[C@@H](CO)C(=O)N[C@@H](CCSC)C(=O)N[C@@H](CCC(=O)O)C(=O)N[C@@H](CCCN=C(N)N)C(=O)N[C@H](C(=O)N[C@@H](CCC(=O)O)C(=O)N[C@@H](Cc1c[nH]c2ccccc12)C(=O)N[C@@H](CC(C)C)C(=O)N[C@@H](CCCN=C(N)N)C(=O)N[C@@H](CCCCN)C(=O)N[C@@H](CCCCN)C(=O)N[C@@H](CC(C)C)C(=O)N[C@@H](CCC(N)=O)C(=O)N[C@@H](CC(=O)O)C(=O)N[C@H](C(=O)N[C@@H](Cc1cnc[nH]1)C(=O)N[C@@H](CC(N)=O)C(=O)N[C@@H](Cc1ccccc1)C(=O)O)C(C)C)C(C)C [Forteo] | dose dependent increase in osteosarcoma rate | – | – | – | –
2 | Natpara: PTH(1-84), approved 2015 for once-daily subcutaneous injection as adjunct to vitamin D and calcium in hypoparathyroidism | – | dose dependent increase in osteosarcoma rate | 71% | did not change | 42%
